{
  "source": "paper PMC6035239",
  "about": "“Glycan recognition in globally dominant human rotaviruses” (Nature Communications, 2018)",
  "target": "T1, P[6] RV3 VP8* (Human rotavirus A, UniProt D7F7M7)",
  "T1 construct": "VP8* domain, N-terminal fragment of spike protein VP4 (polyprotein-like precursor cleaved by trypsin); N-terminal GST tag removed with thrombin; E. coli BL21(DE3)",
  "assay": "2D 1H-15N HSQC NMR titration, global fit of […] peaks",
  "assay_type": "binding",
  "details": "70 μM 15N-labeled protein, 0.5-20 mM ligand; 10 mM sodium phosphate, 50 mM NaCl, 10% D2O, pH 7; crystal structure and STD NMR also done",
  "data": [
    {"smiles": "CC(=O)N[C@H]1[C@H](O[C@H]2[C@@H](O)[C@@H](CO)O[C@@H](O[C@H]3[C@H](O)[C@@H](O)C(O)O[C@@H]3CO)[C@@H]2O)O[C@H](CO)[C@@H](O)[C@@H]1O[C@@H]1O[C@H](CO)[C@H](O)[C@H](O)[C@H]1O[C@@H]1O[C@@H](C)[C@@H](O)[C@@H](O)[C@@H]1O", "note": "(stereo partly shown) [LNFP1]", "values": [
      {"measurement": "Kd", "value": "7.1 ± 0.2", "unit": "mM"}
    ]}
  ]
}
